Values joined by “and” are separate entries in the source; they are usually repeats but may differ in a detail not shown here. Equal values may be shown once. Read-outs that look alike come from different tables or passages of the source.
Assays:
[1] = tested on: E. Coli; test: MIC, E. Coli; assay type: cell-based; conditions: 24 h;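 note: minimum inhibitory concentration determined in duplicate in 96-well plates, compounds given in 4% aqueous DMSO, with ampicillin and tetracycline as positive controls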
Protocol: (§1) The MIC assays are carried out in 150 μL volume in duplicate in 96-well clear flat-bottom plates. The bacterial suspension from an overnight culture growth in appropriate medium is added to a solution of test compound in 4% DMSO in water. Final bacterial inoculum is approximately 10^5-10^6 CFU/well. […] Both ampicillin and tetracycline are used as antibiotic-positive controls in each screening assay for S. pyogenes, E. coli imp-, E. coli, S. aureus, E. faecalis, K. pneumoniae and P. vulgaris. Ciprofloxacin is used as an antibiotic positive control in each screening assay for P. aeruginosa.

[2] = tested on: S. Aureus; test: MIC, S. Aureus; assay type: cell-based; conditions: 24 h
Protocol: as §1

[3] = target: 16S ribosomal subunit RNA target; test: Mass spectrometry based binding assay (FTICR), 16S
Protocol: In a typical experiment, 10 μL of an aqueous solution containing 100 mM ammonium acetate buffer, 2.5 or 5 μM of each RNA, and 33% isopropyl alcohol (to aid ion desolvation) was prepared with different concentrations of each ligand or ligand mixture. Samples were introduced into the electrospray ionization source (negative ionization mode) at 1 μL/min and ions were stored for 1 sec in an RF-only hexapole following desolvation. The abundances were integrated from the respective ions for free RNA and the ligand-RNA complex. The primary (1:1 RNA:ligand) and secondary (1:2 complex, if observed). […] The peak ratios were measured at each concentration, then a plot of complex/free RNA versus concentration of ligand added was fitted to a second (or higher) order binding polynomial to determine the KD.

[4] = tested on: E. coli S30 bacterial extract (pBestLuc luciferase reporter); test: Coupled bacterial transcription/translation assay; assay type: biochemical; conditions: read-out: Trans/trans IC50
Protocol: The DNA template, pBestLuc™ (Promega), is a plasmid containing a reporter gene for firefly luciferase fused to a strong tac promoter and ribosome binding site. Messenger RNA from 1 μg pBestLuc is transcribed and translated in E. coli S30 bacterial extract in the presence or absence of test compound. Compounds are tested in a black 96 well microtiter plate with an assay volume of 35 μL. […] The transcription/translation reaction is incubated for 35 minutes at 37° C. followed by detection of functional luciferase with the addition of 30 μL LucLite™ (Packard). Light output is quantitated on a Packard TopCount.

[5] = tested on: S. aureus (ATCC 13709)
Protocol: Male ICR mice are fed with autoclaved commercial food pellets and sterile water ad libitum. Animals are inoculated intraperitoneally with 1.0×10^6 CFU/0.5 mL/mouse of S. aureus (ATCC 13709) containing 10% mucin. Ten animals each are randomly assigned to either control or treatment groups. Test compound and gentamycin (included as a positive control) are both administered subcutaneously one and 3 hour after infection. Test compound is administered as an aqueous buffer solution (phosphate buffered saline (PBS), pH=7.4). The data is presented as the number of mice out of the 10 in the group that were not protected from lethal infection.

[6] = range between growth and complete inhibition

| SMILES | MIC E. Coli. [1, 6] | MIC S. Aureus [2, 6] | Kd [3] | IC50 [4] | MIC E. Coli. [1] | MIC S. Aureus [2] | other results |
| --- | --- | --- | --- | --- | --- | --- | --- |
| NCCN(CCN)CCOC1C(OC2C(O)C(N)CC(N)C2OC2OC(CO)C(O)C(O)C2N)OC(CO)C1OC1OC(CN)C(O)C(O)C1N (stereo not shown) [IBIS00560172] | >50 µM | 25 to 50 µM | – | – | – | – | – |
| CN(C)CCOC1C(OC2C(O)C(N)CC(N)C2OC2OC(CO)C(O)C(O)C2N)OC(CO)C1OC1OC(CN)C(O)C(O)C1N (stereo not shown) [IBIS00560174] | 12 to 52 µM | 6 to 12 µM | 930 nM | 210 nM | – | – | – |
| NCCCNCCOC1C(OC2C(O)C(N)CC(N)C2OC2OC(CO)C(O)C(O)C2N)OC(CO)C1OC1OC(CN)C(O)C(O)C1N (stereo not shown) [IBIS00560175] | 25 to 50 µM and 25 µM | 3 to 6 µM and 3 µM | – | 290 nM | – | – | – |
| NCCNCCOC1C(OC2C(O)C(N)CC(N)C2OC2OC(CO)C(O)C(O)C2N)OC(CO)C1OC1OC(CN)C(O)C(O)C1N (stereo not shown) [IBIS00560177] | 6 µM and 6 to 12 µM | 2 µM and 2 to 3 µM | – | 290 nM | – | – | – |
| NCC1OC(OC2C(CO)OC(OC3C(O)C(N)CC(N)C3OC3OC(CO)C(O)C(O)C3N)C2OCCNC2CCCNC2)C(N)C(O)C1O (stereo not shown) [IBIS00560725] | 1.5-3^ μM | 3 to 6 µM | 110 nM | 80 nM | – | – | – |
| NCC1OC(OC2C(CO)OC(OC3C(O)C(N)CC(N)C3OC3OC(CO)C(O)C(O)C3N)C2OCCNCC2CCCNC2)C(N)C(O)C1O (stereo not shown) [IBIS00560726] | – | – | 250 nM and 130 nM | – | – | – | – |
| NCC1OC(OC2C(CO)OC(OC3C(O)C(N)CC(N)C3OC3OC(CO)C(O)C(O)C3N)C2OCCNCc2nc3ccccc3[nH]2)C(N)C(O)C1O (stereo not shown) [IBIS00560797] | 6 to 12 µM | 25 to 50 µM | 4100 nM | 340 nM | – | – | – |
| NCC1OC(OC2C(CO)OC(OC3C(O)C(N)CC(N)C3OC3OC(CO)C(O)C(O)C3N)C2OCCNc2cccnc2)C(N)C(O)C1O (stereo not shown) [IBIS00560798] | 3 to 6 µM | 0.6-1^ μM | 550 nM | 80 nM | – | – | – |
| NCC1OC(OC2C(CO)OC(OC3C(O)C(N)CC(N)C3OC3OC(CO)C(O)C(O)C3N)C2OCCNC2CCCCC2)C(N)C(O)C1O (stereo not shown) [IBIS00560931] | – | – | – | – | 3 to 6 µM | 3 to 5 µM | – |
| NCC1OC(OC2C(CO)OC(OC3C(O)C(N)CC(N)C3OC3OC(CO)C(O)C(O)C3N)C2OCCNc2ccccc2)C(N)C(O)C1O (stereo not shown) [IBIS00560932] | – | – | – | – | 50 to 100 µM | 6 to 12 µM | – |
| NCC1OC(OC2C(CO)OC(OC3C(O)C(N)CC(N)C3OC3OC(CO)C(O)C(O)C3N)C2OCCNCc2ccnc(N)c2)C(N)C(O)C1O (stereo not shown) [IBIS00560965] | – | – | – | – | 6 to 12 µM | 0.6-1^ μM | – |
| NCC1OC(OC2C(CO)OC(OC3C(O)C(N)CC(N)C3OC3OC(CO)C(O)C(O)C3N)C2OCCNCCc2cccnc2)C(N)C(O)C1O (stereo not shown) [IBIS00560972] | – | – | – | – | 6 to 12 µM | 0.6-1^ μM | – |
| NCC1OC(OC2C(CO)OC(OC3C(O)C(N)CC(N)C3OC3OC(CO)C(O)C(O)C3N)C2OCCNCCc2ccccc2)C(N)C(O)C1O (stereo not shown) [IBIS00560973] | – | – | – | – | 3 to 6 µM | 0.3 to 0.6 µM | number of mice out of the 10 in the group that were not protected from lethal infection ([5]; 0.1 mg/kg subcutaneously 1 and 3 hour after i.p. infection): 5/10; number of mice out of the 10 in the group that were not protected from lethal infection ([5]; 0.5 mg/kg subcutaneously 1 and 3 hour after i.p. infection): 0/10; number of mice out of the 10 in the group that were not protected from lethal infection ([5]; 1 mg/kg subcutaneously 1 and 3 hour after i.p. infection): 0/10; number of mice out of the 10 in the group that were not protected from lethal infection ([5]; 2 mg/kg subcutaneously 1 and 3 hour after i.p. infection): 0/10; number of mice out of the 10 in the group that were not protected from lethal infection ([5]; 4.5 mg/kg subcutaneously 1 and 3 hour after i.p. infection): 0/10; number of mice out of the 10 in the group that were not protected from lethal infection ([5]; 9 mg/kg subcutaneously 1 and 3 hour after i.p. infection): 0/10; number of mice out of the 10 in the group that were not protected from lethal infection ([5]; 18 mg/kg subcutaneously 1 and 3 hour after i.p. infection): 0/10; number of mice out of the 10 in the group that were not protected from lethal infection ([5]; 37 mg/kg subcutaneously 1 and 3 hour after i.p. infection): 0/10; number of mice out of the 10 in the group that were not protected from lethal infection ([5]; 75 mg/kg subcutaneously 1 and 3 hour after i.p. infection): 0/10; prevention of lethal bacterial infection in mice (in words) ([5]; S. aureus ATCC 13709 i.p., compound s.c.): effective at preventing lethal bacterial infections in mice; number of mice out of the 10 in the group that were not protected from lethal infection ([5]; mouse, in vivo): 1/10 |

— patent US7943749B2, “Antimicrobial 2-deoxystreptamine compounds” (Isis Pharmaceuticals, Inc., priority 2004, dated 2011)
